Laboratory results from patent EP2889299A1, “Fluorescent red emitting functionalizable pH probes” (Paris Sciences et Lettres - Quartier Latin, priority 2013, dated 2015).
Where two headings read alike, the source gives them in different places.

Assays:
[1] = pKa calculation from fluorescence intensity versus pH (Hill equation fit); format: physicochemical; settings: fluorescence intensity at λem,max versus pH, 25°C
Description: pKa calculations. pKa values were calculated by plotting the fluorescence intensity at λem.,max versus the pH. The data was fit to the Hill Equation (equation 4) and the pKa taken as x1/2 as per the Hill equation. base + ((max-base))/(1 + (((x1/2)/(x)))^rate) [formula] • base = y value at minimum x-value • max = y value at maximum x-value • rate = rise rate of the curve • x1/2 = x value at which y = (base + max)/2.
The dependence of fluorescence enhancement on pH was determined for probes I-1, I-3 and I-4. Results are represented in figure 4A, 4B, and 4C respectively. Curve fitting was based on a modified Hill equation from which pKa values were calculated.

[2] = Fluorescence spectra, quantum yield and dynamic range; format: physicochemical; settings: for λem: excitation at 535 nm, maximum emission wavelength; for Φ: MOPS 30 mM, KCl 100 mM, reference Rhodamine 101, excitation 535 nm; for Dynamic Range: maximal value of (I-Imin)/Imin; for ΦON/ ΦOFF: ratio of quantum yields at pH 4 and pH 10
Description: (§1) All the solvents were of analytical grade. Chemicals were purchased from commercial sources. The salts used in stock solutions of metal ions were CaCl2·2H2O, CuCl2·2H2O, FeCl3·6H2O, MgCl2·6H2O, MnCl2·4H2O, ZnBr2. ^1H-NMR and ^13C-NMR were measured on a Bruker avance III-300 MHz spectrometer with chemical shifts reported in ppm (TMS as internal standard). Mass spectra were measured on a Focus GC / DSQ II spectrometer (ThermoScientific) for IC and an API 3000 spectrometer (Applied Biosystems, PE Sciex) for ES. All pH measurements were made with a Mettler Toledo pH-Meter. Fluorescence spectra were recorded on a JASCO FP-8300 spectrofluorometer. Absorption spectra were determined on a VARIAN CARY 300 Bio UV-Visible spectrophotometer. All measurements were done at a set temperature of 25°C. The purity of the dyes were checked by RP-HPLC C-18, eluant: ACN 0.1% TFA/Water 0.1 % TFA, method: 20/80 to 100/0 within 20 min. then 100/0 for 10 min. detection at λabs= 254 nm.
Dynamic range. The term dynamic range refers to the maximal value of equation 1 where I is the observed fluorescence intensity and Imin is the minimum fluorescence intensity observed for that probe. The larger the dynamic range the better as it indicates good differentiation between "on" and "off' states. Dynamic Range = ((I-Imin))/(Imin) [formula]
Quantum yield calculations. The fluorescence quantum yields (Φ) were calculated from the gradient of integrated fluorescence intensity (545 to 700 nm) versus optical density. Rhodamine 101 (Φ = 1.0 in absolute ethanol) was used as a reference standard (ref) with the excitation wavelength at 535 nm. Equation 2 was used to determine the Φ values. Φ = Φref (grad.)/(grad.ref).(η^2)/(ηref^2) [formula] • Φ = quantum yield • η = refractive index of the solvent system (η (H2O) = 1.33, ηref (EtOH) = 1.36) grad. = gradient of the curve
ΦON (pH = 4) and ΦOFF (pH = 10) were calculated for each pH probe in MOPS 30 mM, KCl 100 mM.
The dependence of fluorescence intensity on pH for probe I-1 was determined in a MOPS buffered aqueous solution after excitation at 535 nm. Results are represented in figure 3.

[3] = Absorption spectra and molar extinction coefficient (Beer Lambert law); format: physicochemical; settings: for λabs: maximum absorption wavelength
Description: as §1
Molar extinction coefficient calculations. Extinction coefficients (ε) were calculated using the Beer Lambert law (equation 3) plotting optical density/absorption versus concentration for the pH probes. The gradient of the plot is equal to ε. A = εc1 [formula] • A = optical density/absorption • ε = extinction coefficient = gradient of the plot • c = concentration • 1= optical path length (1 cm)
The dependence of absorption on pH for probe I-1 was determined in a MOPS buffered aqueous solution. Results are represented in figure 2.

[4] = tested on: CHO-K1 cells; test: Cytotoxicity, CCK-8 cell counting kit; format: cell-based, Chinese hamster; settings: 1% Triton; positive control
Description: Cytotoxicity: CHO-K1 cells (20,000 per well) were seeded in 96 multiple well plates for 24 h before the experiment. Cells (40,000 per well) were incubated with the fluorescent compounds in 100 µL DMEM for 2h at 37°C. The incubation medium was replaced by 100µL fresh DMEM containing 10% of cell-counting solution (Dojindo Laboratories) and further incubated for 2h at 37°C. The absorbance was measured at 450 nm (reference at 620 nm) and was directly related to the number of living cells. Experiments were done in triplicate and repeated twice.
To determine cytotoxicity a CCK-8 cell counting kit was used. This can be bought commercially and relies upon the reduction of a highly water-soluble tetrazolium salt (WST-8). This compound is slightly yellow in color, however, upon reduction to its corresponding formazan species it becomes bright orange. The optical density of the absorbance corresponding to the orange formazan species, detected at 450nm, can be measured and correlated to the number of living cells. A decrease in optical density corresponds directly to a decrease in the quantity of formazan molecules indicating fewer living cells due to cell death/cytotoxicity. The reduction of WST-8 is achieved by exploiting the redox reactions of NAD+, a coenzyme found in all living cells. Cellular NAD+ is constantly being reduced to NADH by dehydrogenases as a natural part of a cell's metabolism. […]

[5] = tested on: F98 cells; test: Dose response by flow cytometry (probe internalization); format: cell-based, rat; settings: F98 cells incubated for two hours
Description: Cell calture for flow cytometry, dose response and cellular imaging: F98 and CHO-K1 cell lines (purchased from ATCC) were maintained at 37°C in 5% CO2 in DMEM/F-12 nutrient medium (Invitrogen, Cergy Pontoise, France) supplemented with 2% (v/v) heat-inactivated fetal bovine serum (Invitrogen) and 100 µg/mL streptomycine and 100 units/mL penicillin (Invitrogen).
Fluorescence Activated Cell Sorting Analyses: F98 cells were incubated with various concentrations of pH probes in DMEM/F-12 culture medium without serum at 37 °C for 2h. The cells were washed with PBS to remove excess fluorescent probe and were treated with 0.05% Trypsin-EDTA for 2 min at 37°C to detach the cells from the surface, and centrifuged at 200 g in DMEM/F-12 culture medium before suspension in PBS. Flow cytometry analyses were performed with live cells using an Accuri C6 flow cytometer (BD Biosciences, Le Pont de Claix, France). The data was obtained and analysed using CFlow Sampler (BD Biosciences). Live cells were gated by forward/side scattering for a total of 10,000 events.
Undifferentiated malignant glioma rat cells (F98) were incubated with probe I-1 for two hours at increasing concentrations and the fluorescence intensity measured. Results are represented in figure 7.

[6] = in absolute ethanol; reference standard; cited from earlier work
[7] = Optical properties of the second (blue) fluorophore; format: physicochemical; settings: measured in CH3CN/H2O
Source text: In addition to having the correct absorption and emission wavelengths, the chosen second fluorophore must feature a terminal alkyne to make it "clickable" with the azide-containing pH probe I-1. The acridone 5 was selected, having the following optical properties (measured in CH3CN/H2O): […]

[8] = Fluorescence of the ratiometric dual-fluorophore probe as a function of pH; format: physicochemical
Source text: • Figure 1 is a drawing schematically representing the red-emitting pH probe of the invention. • Figure 2 is a graph representing the dependence of absorption on pH in a MOPS buffered aqueous solution for compound I-1. • Figure 3 is a graph representing the dependence of fluorescence intensity on pH in a MOPS buffered aqueous solution after excitation at 535 nm, for compound I-1. • Figure 4A-4C are graphs representing the dependence of fluorescence enhancement on pH for compounds I-1 (4A), I-3 (4B) and I-4 (4C). • Figure 5 is a graph representing fluorescence intensities of compound I-1 (5 µM) in presence of a range of metal ions in a MOPS buffer (MOPS 30 mM, KCl 100 mM, pH 7.2). The concentration of cations is 10^-3 M. • Figure 6 is a graph representing CCK-8 test results for compound I-1 indicating cytotoxicity. The probe was incubated with Chinese hamster ovary cells (CHO-K1) for 2 hours at 37°C. • Figure 7 is a dose response diagram for F98 cells incubated with pH probe I-1. • Figure 8 is a graph representing the fluorescence spectrum for the dual-fluorophore I-5 (5 µM) measured in an aqueous MOPS buffered solution/MeOH, 91/9. • Figure 9 is a plot of I∼612/I439 versus pH at excitation wavelength 405 nm for compound I-5. I∼612 and I439 are the respective fluorescence intensities of the system at ∼612nm corresponding to the X-rhodamine red-emission and at 439nm corresponding to the acridone blue-emission.
The peak centred at 439 nm corresponding to emission from the acridone fluorophore and the peak centred at 612 nm to that of the X-rhodamine. The blue acridone emission is not dependent on pH while the red X-rhodamine emission is dependent on pH.
In order to visualize the intensity ratio between the two emission signals a plot of I∼612/I439 versus pH was plotted (figure 9). I∼612 and I439 are the respective fluorescence intensities of the system at ∼612 nm corresponding to the X-rhodamine red-emission and at 439 nm corresponding to the acridone blue-emission.

[9] = 5 µM, aqueous MOPS buffered solution/MeOH, 91/9

| pKa [1] | λem ([2]; OFF, deprotonated form: pH 10) | Φ ([2]; OFF, pH 10) | Φ ([2]; ON, pH 4) | λem ([2]; ON, protonated form: pH 4) | Dynamic Range [2] | ΦON/ ΦOFF [2] | ε ([3]; OFF, deprotonated form: pH 10) | λabs ([3]; OFF, deprotonated form: pH 10) | ε ([3]; ON, protonated form: pH 4) | λabs ([3]; ON, protonated form: pH 4) | Molecule | other results |
| --- | --- | --- | --- | --- | --- | --- | --- | --- | --- | --- | --- | --- |
| 7.68 | 602 nm | 0.016 | 0.640 | 601 nm | 86 | 40 | 49298 M⁻¹ cm⁻¹ | 575 nm | 72405 M⁻¹ cm⁻¹ | 580 nm | C#CCOC(=O)N1CCN(C(=O)c2cc(C3=c4cc5c6c(c4Oc4c3cc3c7c4CCCN7CCC3)CCC[N+]=6CCC5)ccc2O)CC1 [Compound I-3] |  |
| 3.96 | 596 nm | 0.009 | 0.254 | 600 nm | 88 | 28 | 26706 M⁻¹ cm⁻¹ | 574 nm | 26742 M⁻¹ cm⁻¹ | 580 nm | [N-]=[N+]=NCCCNC(=O)c1cc(C2=c3cc4c5c(c3Oc3c2cc2c6c3CCCN6CCC2)CCC[N+]=5CCC4)ccc1O [Compound I-1] | absorbs light at ([3]; red region of the spectrum): 580 nm; fluorescence intensity of cells at increasing concentrations of probe [5]: increase of fluorescence with increasing concentration of probe |
| 7.64 | 600 nm | 0.023 | 0.798 | 601 nm | 98 | 35 | 20712 M⁻¹ cm⁻¹ | 574 nm | 35109 M⁻¹ cm⁻¹ | 580 nm | C#CCN1CCN(C(=O)c2cc(C3=c4cc5c6c(c4Oc4c3cc3c7c4CCCN7CCC3)CCC[N+]=6CCC5)ccc2O)CC1 [Compound I-4] |  |

Further lines, the molecule ahead of its results:

| Molecule | pKa [1] | λem ([2]; OFF, deprotonated form: pH 10) | Φ ([2]; OFF, pH 10) | Φ ([2]; ON, pH 4) | λem ([2]; ON, protonated form: pH 4) | Dynamic Range [2] | ΦON/ ΦOFF [2] | ε ([3]; OFF, deprotonated form: pH 10) | λabs ([3]; OFF, deprotonated form: pH 10) | ε ([3]; ON, protonated form: pH 4) | λabs ([3]; ON, protonated form: pH 4) | other results |
| --- | --- | --- | --- | --- | --- | --- | --- | --- | --- | --- | --- | --- |
| Triton |  |  |  |  |  |  |  |  |  |  |  | cell death [4]: total cell death |
| O=C(O)c1ccccc1C1=c2cc3c4c(c2Oc2c1cc1c5c2CCCN5CCC1)CCC[N+]=4CCC3.[Cl-] [Rhodamine 101] |  |  |  |  |  |  |  |  |  |  |  | Φ [6]: 1.0 |
| C#CCCCn1c2ccccc2c(=O)c2ccccc21 |  |  |  |  |  |  |  |  |  |  |  | λabs [7]: 408 nm; λem [7]: 425 nm; FWHM ([7]; full width at half maximum): 49 |
| O=C(NCCCn1cc(CCCn2c3ccccc3c(=O)c3ccccc32)nn1)c1cc(C2=c3cc4c5c(c3Oc3c2cc2c6c3CCCN6CCC2)CCC[N+]=5CCC4)ccc1O [Compound I-5] |  |  |  |  |  |  |  |  |  |  |  | emission peak of the X-rhodamine [8, 9]: 612 nm; emission peak of the acridone fluorophore [8, 9]: 439 nm; I∼612/I439 ratio ([8]; excitation wavelength 405 nm, as the system was acidified): four-fold increase |
